Data: paper PMC7614683, “A small molecule PI3Kα activator for cardioprotection and neuroregeneration” (Nature, 2023)
Like-named read-outs stand apart in the source and are kept apart here.

Tests used:
Assay in all cases: SelectScreen Z-LYTE kinase activity assay (SI Table 6)
Format in all cases: biochemical
[1] = molecular target: protein kinases of the Z-LYTE panel (Homo sapiens, UniProt Q02750); conditions: MAP2K1 (MEK1), 1000 nM, [ATP] 100 μM
Summary of the method: (§1)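 Percent effect values derive from SelectScreen Adapta, Lantha and Z-LYTE assays in which 1938 was present at 1 μM, spanning 133 protein kinases and 7 lipid kinases.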

[2] = molecular target: T1, protein kinases of the Z-LYTE panel (Homo sapiens, UniProt Q13043)
T1 sequence (Q13043 1-487): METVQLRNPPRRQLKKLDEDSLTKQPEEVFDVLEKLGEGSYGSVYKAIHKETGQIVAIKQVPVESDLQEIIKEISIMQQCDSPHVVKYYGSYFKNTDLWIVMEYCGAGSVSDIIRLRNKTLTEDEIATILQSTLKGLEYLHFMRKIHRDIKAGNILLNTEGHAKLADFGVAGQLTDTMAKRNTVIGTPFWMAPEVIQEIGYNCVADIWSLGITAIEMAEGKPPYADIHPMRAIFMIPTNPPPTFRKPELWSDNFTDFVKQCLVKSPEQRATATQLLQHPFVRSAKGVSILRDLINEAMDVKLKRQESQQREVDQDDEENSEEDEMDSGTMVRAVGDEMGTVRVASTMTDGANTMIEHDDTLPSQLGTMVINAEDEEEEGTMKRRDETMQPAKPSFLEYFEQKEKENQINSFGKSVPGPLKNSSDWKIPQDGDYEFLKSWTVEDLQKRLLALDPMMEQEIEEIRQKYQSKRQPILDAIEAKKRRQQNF
Summary of the method: as §1

[3] = molecular target: T2, protein kinases of the Z-LYTE panel (Homo sapiens, UniProt P52333)
T2 sequence (P52333 1-1124): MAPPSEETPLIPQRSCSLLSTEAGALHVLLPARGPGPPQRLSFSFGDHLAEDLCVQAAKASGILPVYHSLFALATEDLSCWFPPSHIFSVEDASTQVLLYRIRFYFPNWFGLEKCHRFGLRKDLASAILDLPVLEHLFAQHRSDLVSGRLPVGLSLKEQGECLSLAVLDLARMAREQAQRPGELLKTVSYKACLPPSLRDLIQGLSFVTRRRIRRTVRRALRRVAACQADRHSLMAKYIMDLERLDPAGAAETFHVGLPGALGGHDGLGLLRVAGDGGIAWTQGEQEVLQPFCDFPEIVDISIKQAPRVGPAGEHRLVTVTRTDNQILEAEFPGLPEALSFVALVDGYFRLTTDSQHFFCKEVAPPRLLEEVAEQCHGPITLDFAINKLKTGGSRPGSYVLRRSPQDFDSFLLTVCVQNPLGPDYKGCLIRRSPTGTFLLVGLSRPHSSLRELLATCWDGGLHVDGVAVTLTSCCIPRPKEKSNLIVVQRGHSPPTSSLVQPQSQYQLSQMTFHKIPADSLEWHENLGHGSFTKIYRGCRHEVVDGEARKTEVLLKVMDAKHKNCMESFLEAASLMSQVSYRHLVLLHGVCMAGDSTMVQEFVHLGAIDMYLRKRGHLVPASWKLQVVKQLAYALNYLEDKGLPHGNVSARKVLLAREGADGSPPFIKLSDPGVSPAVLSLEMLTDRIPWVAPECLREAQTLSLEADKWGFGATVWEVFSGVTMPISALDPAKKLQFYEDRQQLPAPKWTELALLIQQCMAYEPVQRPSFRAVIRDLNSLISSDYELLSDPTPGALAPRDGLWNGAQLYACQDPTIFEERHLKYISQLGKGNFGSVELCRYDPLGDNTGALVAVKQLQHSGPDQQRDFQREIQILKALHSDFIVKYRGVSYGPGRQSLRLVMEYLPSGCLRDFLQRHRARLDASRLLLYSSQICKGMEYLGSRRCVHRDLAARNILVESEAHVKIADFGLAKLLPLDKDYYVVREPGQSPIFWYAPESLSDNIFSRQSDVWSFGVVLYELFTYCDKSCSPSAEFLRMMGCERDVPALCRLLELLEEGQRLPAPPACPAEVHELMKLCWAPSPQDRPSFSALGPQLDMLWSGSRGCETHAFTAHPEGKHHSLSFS
Summary of the method: as §1

[4] = molecular target: protein kinases of the Z-LYTE panel (Homo sapiens, UniProt P04049, Y340D/Y341D); conditions: RAF1 (cRAF) Y340D Y341D, 1000 nM, [ATP] 100 μM
Summary of the method: as §1

protein kinases of the Z-LYTE panel (Homo sapiens, UniProt Q02750), sequence (Q02750 whole entry): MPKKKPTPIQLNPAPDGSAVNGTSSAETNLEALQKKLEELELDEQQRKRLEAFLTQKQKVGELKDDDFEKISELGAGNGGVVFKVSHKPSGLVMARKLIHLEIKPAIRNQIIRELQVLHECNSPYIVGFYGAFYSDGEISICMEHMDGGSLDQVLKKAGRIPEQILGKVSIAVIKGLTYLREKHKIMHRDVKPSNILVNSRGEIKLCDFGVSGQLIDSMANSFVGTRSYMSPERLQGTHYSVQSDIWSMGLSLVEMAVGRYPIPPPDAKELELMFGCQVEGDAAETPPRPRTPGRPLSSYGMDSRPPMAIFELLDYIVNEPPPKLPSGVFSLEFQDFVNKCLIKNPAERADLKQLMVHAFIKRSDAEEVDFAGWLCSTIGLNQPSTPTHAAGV
protein kinases of the Z-LYTE panel (Homo sapiens, UniProt P04049, Y340D/Y341D), sequence (P04049 whole entry Y340D/Y341D): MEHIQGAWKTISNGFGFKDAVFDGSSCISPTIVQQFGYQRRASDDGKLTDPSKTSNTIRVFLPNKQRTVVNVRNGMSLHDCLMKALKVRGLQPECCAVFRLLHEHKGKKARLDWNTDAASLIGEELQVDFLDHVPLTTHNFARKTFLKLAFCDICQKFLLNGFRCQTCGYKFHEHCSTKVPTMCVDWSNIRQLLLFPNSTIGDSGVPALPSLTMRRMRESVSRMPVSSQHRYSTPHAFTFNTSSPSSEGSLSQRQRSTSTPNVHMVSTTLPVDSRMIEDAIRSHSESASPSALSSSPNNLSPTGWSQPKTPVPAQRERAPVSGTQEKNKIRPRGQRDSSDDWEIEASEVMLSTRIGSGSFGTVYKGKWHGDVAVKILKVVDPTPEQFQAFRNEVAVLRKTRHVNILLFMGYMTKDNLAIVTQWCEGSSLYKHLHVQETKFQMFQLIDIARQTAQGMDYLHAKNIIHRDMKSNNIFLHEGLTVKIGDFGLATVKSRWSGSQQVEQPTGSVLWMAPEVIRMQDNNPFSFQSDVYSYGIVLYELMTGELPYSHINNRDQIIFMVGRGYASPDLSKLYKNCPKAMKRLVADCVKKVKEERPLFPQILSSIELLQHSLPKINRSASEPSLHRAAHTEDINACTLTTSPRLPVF

CCN1CCN(c2ccc(Nc3cc(Nc4cccc5c4N(C(C)=O)CC5)ccn3)cc2)CC1 [Compound 1938]
inhibition at 1 µM ([1]; read-out: % Inhibition Point 1): 4%
inhibition at 1 µM ([1]; read-out: % Inhibition Point 2): 3.36%
inhibition at 1 µM ([1]; read-out: % Inhibition mean): 3.61%
inhibition at 1 µM ([2]; read-out: % Inhibition Point 1): 4%
inhibition at 1 µM ([2]; read-out: % Inhibition Point 2): 1.07%
inhibition at 1 µM ([2]; read-out: % Inhibition mean): 2.46%
inhibition at 1 µM ([3]; read-out: % Inhibition Point 1): 3%
inhibition at 1 µM ([3]; read-out: % Inhibition Point 2): 1.12%
inhibition at 1 µM ([3]; read-out: % Inhibition mean): 2%
inhibition at 1 µM ([4]; read-out: % Inhibition Point 1): 5.53%
inhibition at 1 µM ([4]; read-out: % Inhibition Point 2): 8%
inhibition at 1 µM ([4]; read-out: % Inhibition mean): 6.59%
